According to ChEMBL document CHEMBL4402608 (J Med Chem, 2020):

How the values were obtained:
D(2) dopamine receptor [1] = biological target: T1, D(2) dopamine receptor (Homo sapiens, UniProt P14416); experiment: Agonist activity at human D2R expressed in CHOK1 cells assessed as induction of beta-arrestin recruitment measured after 90 mins by beta-galactosidase based PathHunter assay; assay type: cell-based
D(2) dopamine receptor [2] = biological target: T1, D(2) dopamine receptor; experiment: Antagonist activity at human D2R expressed in CHOK1 cells assessed as inhibition of dopamine-induced beta-arrestin recruitment measured after 120 mins by beta-galactosidase based PathHunter assay; assay type: cell-based; settings: read-out: IC50
D(2) dopamine receptor [3] = biological target: T1, D(2) dopamine receptor; experiment: Antagonist activity at human D2R expressed in CHOK1 cells assessed as inhibition of dopamine-induced beta-arrestin recruitment measured after 120 mins by beta-galactosidase based PathHunter assay relative to sulpiride; assay type: cell-based; settings: 2 h, read-out: Imax
D(3) dopamine receptor [4] = biological target: T2, D(3) dopamine receptor (Homo sapiens, UniProt P35462); experiment: Agonist activity at human D3R expressed in CHOK1 cells assessed as induction of beta-arrestin recruitment measured after 90 mins by beta-galactosidase based PathHunter assay; assay type: cell-based
D(2) dopamine receptor [5] = biological target: T1, D(2) dopamine receptor
D(3) dopamine receptor [6] = biological target: T2, D(3) dopamine receptor; experiment: biochemical
[7] = biological target: 5-hydroxytryptamine receptor 2B (Homo sapiens, UniProt P41595); experiment: Antagonist activity at recombinant human 5-HT2B receptor expressed in CHOK1 cells assessed as inhibition of serotonin-induced increase in inositol1-phosphate accumulation measured after 30 mins by HTRF assay; assay type: functional, cell-based
Sequence of 5-hydroxytryptamine receptor 2B (P41595 whole entry): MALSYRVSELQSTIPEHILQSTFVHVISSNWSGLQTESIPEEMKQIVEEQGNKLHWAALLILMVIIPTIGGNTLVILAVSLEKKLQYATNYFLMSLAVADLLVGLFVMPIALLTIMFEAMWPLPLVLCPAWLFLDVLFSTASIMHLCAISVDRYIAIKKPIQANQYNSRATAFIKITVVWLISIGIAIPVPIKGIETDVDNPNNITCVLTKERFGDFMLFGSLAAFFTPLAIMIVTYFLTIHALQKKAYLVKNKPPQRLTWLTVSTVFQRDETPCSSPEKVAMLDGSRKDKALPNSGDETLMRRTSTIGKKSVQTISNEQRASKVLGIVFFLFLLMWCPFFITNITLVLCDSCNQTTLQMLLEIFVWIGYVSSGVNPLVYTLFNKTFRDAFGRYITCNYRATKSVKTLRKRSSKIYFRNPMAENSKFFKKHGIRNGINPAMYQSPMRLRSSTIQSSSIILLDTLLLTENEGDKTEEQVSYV

T1 sequence (P14416 whole entry): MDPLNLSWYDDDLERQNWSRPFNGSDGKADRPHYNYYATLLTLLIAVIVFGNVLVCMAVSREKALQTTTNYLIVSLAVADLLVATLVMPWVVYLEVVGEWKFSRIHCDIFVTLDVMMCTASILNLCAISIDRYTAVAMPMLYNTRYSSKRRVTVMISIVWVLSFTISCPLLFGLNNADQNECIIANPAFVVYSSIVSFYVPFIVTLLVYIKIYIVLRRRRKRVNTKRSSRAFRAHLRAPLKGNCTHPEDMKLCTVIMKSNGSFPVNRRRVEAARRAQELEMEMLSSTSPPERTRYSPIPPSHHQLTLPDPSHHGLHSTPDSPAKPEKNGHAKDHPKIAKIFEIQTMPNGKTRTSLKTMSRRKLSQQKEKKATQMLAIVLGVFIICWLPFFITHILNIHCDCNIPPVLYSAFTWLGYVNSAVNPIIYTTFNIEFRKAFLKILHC
T2 sequence (P35462 whole entry): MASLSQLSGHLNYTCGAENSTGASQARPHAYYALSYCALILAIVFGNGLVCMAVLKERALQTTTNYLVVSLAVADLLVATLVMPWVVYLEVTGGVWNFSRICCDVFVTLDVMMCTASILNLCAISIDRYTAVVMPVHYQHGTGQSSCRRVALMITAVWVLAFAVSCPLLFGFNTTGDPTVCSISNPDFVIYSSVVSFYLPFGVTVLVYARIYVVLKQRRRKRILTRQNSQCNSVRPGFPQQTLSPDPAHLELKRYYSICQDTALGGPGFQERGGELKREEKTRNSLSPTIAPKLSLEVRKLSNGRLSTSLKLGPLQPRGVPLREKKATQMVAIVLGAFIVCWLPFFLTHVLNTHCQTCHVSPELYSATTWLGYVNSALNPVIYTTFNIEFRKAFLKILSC

Row | EC50 (D(2) dopamine receptor [1]) | IC50 (D(2) dopamine receptor [2]) | Emax (D(2) dopamine receptor [3]) | EC50 (D(3) dopamine receptor [4]; read-out: EC50) | IC50 (D(2) dopamine receptor [5]) | IC50 (D(3) dopamine receptor [6]) | EC50 (D(2) dopamine receptor [1]; read-out: EC50) | EC50 (D(3) dopamine receptor [4]) | EC50 [7] | Compound
1 | Not Active | 18000 nM | 89% |  |  |  |  |  |  | COc1ccc(OC(C)CN2CCN(C(=O)c3ccc(OC)cc3)CC2)cc1 (stereo not given)
2 | Not Active |  | 88% | 710 nM | > 100000 nM | 10000 to 100000 nM |  |  |  | COc1ccc(OCCN2CCN(C(=O)c3ccc(OC)cc3)CC2)cc1
3 | Not Active | 13000 nM | 88% | 610 nM |  |  |  |  |  | Cc1ccc(OCCN2CCN(C(=O)c3cc4ccccc4[nH]3)CC2)cc1C
4 |  | 7400 nM | 30% | 280 nM |  |  | 830 nM |  |  | COc1cccc(OCCN2CCN(C(=O)c3cc4cnccc4[nH]3)CC2)c1
5 |  | 535 nM | 37% | 9.2 nM |  |  | 1800 nM |  |  | O=C(c1cc2ccccc2[nH]1)N1CCN(CCOc2ccccc2)CC1
6 |  | 9700 nM | 72% | 126 nM |  |  | > 50000 nM |  |  | O=C(c1cc2ccccc2[nH]1)N1CCN(CCOc2ccc(F)cc2)CC1
7 | Not Active | 9000 nM | 107% |  |  |  |  | Not Active |  | COc1ccc(OCCN2CCN(C(=O)c3ccc(Cl)cc3)CC2)cc1
8 |  |  |  |  |  |  |  |  | 13 nM | Cn1ccc2cc3c(cc21)CCN3C(=O)Nc1cccnc1
9 | Not Active | > 10000 nM | 101% |  |  |  |  |  |  | COc1ccc(C(=O)N2CCN(CCOc3ccc(Cl)cc3)CC2)cc1
10 | Not Active | > 50000 nM |  | 114 nM |  |  |  |  |  | O=C(c1cc2ccccc2[nH]1)N1CCN(CCOc2ccc(Cl)cc2)CC1
11 | Not Active | 7700 nM | 111% |  |  |  |  |  |  | COc1ccc(OCCN2CCN(C(=O)c3cc4ccccc4o3)CC2)cc1
12 | Not Active | 6000 nM | 106% | 530 nM |  |  |  |  |  | CCc1ccc(C(=O)N2CCN(CCOc3ccc(OC)cc3)CC2)cc1

Row | Compound | EC50 (D(2) dopamine receptor [1]) | IC50 (D(2) dopamine receptor [2]) | Emax (D(2) dopamine receptor [3]) | EC50 (D(3) dopamine receptor [4]; read-out: EC50) | IC50 (D(2) dopamine receptor [5]) | IC50 (D(3) dopamine receptor [6]) | EC50 (D(2) dopamine receptor [1]; read-out: EC50) | EC50 (D(3) dopamine receptor [4]) | EC50 [7]
13 | COc1ccc(C(=O)N2CCN(CCOc3ccc4c(c3)OCO4)CC2)cc1 | Not Active | > 10000 nM | 87% | 310 nM |  |  |  |  | 
14 | COc1ccc(OCCN2CCN(C(=O)c3cc4ccccc4n3C)CC2)cc1 | Not Active | 9600 nM | 105% | 310 nM |  |  |  |  | 
